Results published in patent US4190661A, “Pyrazolo-quinolines, compositions and pharmaceutical preparations” (Laboratoires Chauvin-Blache, priority 1977, dated 1980).
Converted amounts (≈) assume the structure as drawn. Read-outs that look alike come from different tables or passages of the source.

What was measured:
Enterobacter cloacae = test: antibacterial activity in vitro, dilution in liquid medium method (MIC/MBC); assay type: cell-based; details: for MIC: read-out: minimum inhibiting concentration (MIC)
Method: (§1) The nalidixic acid solution and the solutions containing compounds of the formula (I) were prepared in distilled water with addition of sodium hydroxide.
(§2) The strains used are all obtained from the hospital where they were recently isolated from urinary infections (except Salmonella para B and Listeria which are obtained from a collection):
(§3) Different dilutions of 24 hour cultures in physiological saline were used, depending on the respective growth rate of each germ:
(§4) The test is conducted in phenol red glucose broth inoculated with 0.1 ml of the dilution of the germ studied per 3 ml of broth.
(§5) The bactericidal activity was investigated according to the dilution in liquid medium method.
(§6) After 18 hours in an oven at 37° C., the minimum inhibiting concentration (MIC) corresponding to the last tube whose pH remains unmodified was noted.
(§7) The minimum bactericidal concentration (MBC) was investigated by spreading on a dish of agar medium a dosage of material taken from the tubes which have remained clear. The MBC/24 hrs is the lowest concentration for which the survival rate is zero after a contact time of 24 hours.

Escherichia coli = test: as above; assay type: cell-based; details: for MIC: read-out: minimum inhibiting concentration (MIC); for MBC: read-out: minimum bactericidal concentration (MBC)
Method: as §1, §2, §3, §4, §5, §6, §7

Pseudomonas aeruginosa = test: as above; assay type: cell-based; details: read-out: minimum inhibiting concentration (MIC)
Method: as §1, §2, §3, §4, §5, §6, §7

Listeria monocytogenes = test: as above; assay type: cell-based; details: for MIC: read-out: minimum inhibiting concentration (MIC); for MBC: read-out: minimum bactericidal concentration (MBC)
Method: as §1, §2, §3, §4, §5, §6, §7

Staphylococcus aureus = test: as above; assay type: cell-based; details: read-out: minimum inhibiting concentration (MIC)
Method: as §1, §2, §3, §4, §5, §6, §7

Citrobacter = test: as above; assay type: cell-based; details: read-out: minimum inhibiting concentration (MIC)
Method: as §1, §2, §3, §4, §5, §6, §7

Klebsiella pneumoniae = test: as above; assay type: cell-based; details: read-out: minimum inhibiting concentration (MIC)
Method: as §1, §2, §3, §4, §5, §6, §7

Salmonella para B = test: as above; assay type: cell-based; details: for MIC: read-out: minimum inhibiting concentration (MIC)
Method: as §1, §2, §3, §4, §5, §6, §7

Proteus mirabilis = test: as above; assay type: cell-based; details: read-out: minimum inhibiting concentration (MIC)
Method: as §1, §2, §3, §4, §5, §6, §7

Streptococcus foecalis = test: as above; assay type: cell-based; details: read-out: minimum inhibiting concentration (MIC)
Method: as §1, §2, §3, §4, §5, §6, §7

[1] = tested on: Enterobacter liquefaciens; test: as above; assay type: cell-based; details: for MIC: read-out: minimum inhibiting concentration (MIC)
Method: as §1, §2
Enterobacter liquefaciens
as §3, §4, §5, §6, §7

[2] = acute toxicity, graphical method according to Miller and Tainter; details: mouse, in vivo, mice
Source text: Indeed, their LD50 values in mice, as determined by the graphical method according to Miller and Tainter are as follows: […]

[3] = Salmonella para B, 18 hours, 37° C.
[4] = Streptococcus foecalis, 18 hours, 37° C.

Compound | MIC (Escherichia coli; 18 hours, 37° C.) [mg/L] | MIC (Pseudomonas aeruginosa; 18 hours, 37° C.) [mg/L] | MIC (Staphylococcus aureus; 18 hours, 37° C.) [mg/L] | MIC (Klebsiella pneumoniae; 18 hours, 37° C.) [mg/L] | MIC (Proteus mirabilis; 18 hours, 37° C.) [mg/L] | MIC (Streptococcus foecalis; [4]) [mg/L] | other results
CCn1cc(C(=O)O)c(=O)c2c3[nH]ncc3ccc21 [I e] | 5 (≈ 19.4 µM) | > 10 | > 10 | > 10 | > 10 | > 10 | MIC (Enterobacter cloacae; 18 hours, 37° C.): > 10 mg/L; MBC (Escherichia coli; contact time 24 hours): 100 mg/L (≈ 389 µM); MIC (Listeria monocytogenes; 18 hours, 37° C.): 10 mg/L (≈ 38.9 µM); MBC (Listeria monocytogenes; contact time 24 hours): 100 mg/L (≈ 389 µM); MIC (Citrobacter; 18 hours, 37° C.): > 10 mg/L; MIC (Salmonella para B; [3]): > 10 mg/L; MIC ([1]; Enterobacter liquefaciens, 18 hours, 37° C.): > 10 mg/L
CCn1cc(C(=O)O)c(=O)c2ccc3[nH]ncc3c21 [I b, 1-ethyl-3-carboxy-4-oxo-pyrazolo[5,4-h]quinoline] | > 100 | > 100 | > 100 | > 100 | > 100 | > 100 | MIC (Salmonella para B; [3]): > 100 mg/L
CCn1cc(C(=O)O)c(=O)c2c3cn[nH]c3ccc21 [I c, 1-Ethyl-3-carboxy-4-oxo-pyrazolo[4,5-f]quinoline] | > 10 | > 10 | > 10 | > 10 | > 10 | > 10 | 
CCn1cc(C(=O)O)c(=O)c2c3nn(C)cc3ccc21 [I g, 1-ethyl-3-carboxy-4-oxo-6-methyl-pyrazolo[3,4-f]uinoline] |  | > 100 | > 100 | > 100 | > 100 | > 100 | 
CCn1cc(C(=O)O)c(=O)c2ccc3cnn(CC)c3c21 [I h, 1,9-diethyl-3-carboxy-4-oxo-pyrazolo[4,5-h]quinoline] |  | > 10 | > 10 | > 10 | > 10 | > 10 | 
CCn1cc(C(=O)O)c(=O)n2nc3ccccc3c12 [I a, 3-oxo-4-carboxy-6-ethyl-pyrimido[3,2-b]indazole] | > 100 | > 100 | > 100 | > 100 | > 100 | > 100 | MIC (Salmonella para B; [3]): > 100 mg/L
CCn1cc(C(=O)O)c(=O)c2c3[nH]ncc3ccc21 [Ie] |  |  |  |  |  |  | LD50 ([2]; ip, intraperitoneal route): 2500 mg/kg; LD50 ([2]; oral route): 4700 mg/kg
C=Cn1cc(C(=O)O)c(=O)c2c3[nH]ncc3ccc21 [I e', 1-Vinyl-3-carboxy-4-oxo-pyrazolo[5,4-f]quinoline] | 5 (≈ 19.6 µM) | > 10 | > 10 | > 10 | > 10 | > 10 | MIC (Citrobacter; 18 hours, 37° C.): > 10 mg/L; LD50 ([2]; ip, intraperitoneal route): 2800 mg/kg; LD50 ([2]; oral route): > 5000 mg/kg
CCn1cc(C(=O)O)c(=O)c2c3cnn(Cc4ccccc4)c3ccc21 [I d, 1-ethyl-3-carboxy-4-oxo-7-benzyl-pyrazolo[4,5-f]quinoline] |  | > 10 | > 10 |  | > 10 | > 10 | 
CCn1cc(C(=O)O)c(=O)c2ccc(C)nc21 [Nalidixic acid, nalidixic acid, reference compound] |  |  |  |  |  |  | MIC (Enterobacter cloacae; 18 h): 50 mg/L (≈ 215 µM); MBC (Enterobacter cloacae; 24 h, read-out: minimum bactericidal concentration (MBC)): 100 mg/L (≈ 431 µM); MIC (Escherichia coli; 18 h): 5 mg/L (≈ 21.5 µM); MBC (Escherichia coli; 24 h): 100 mg/L (≈ 431 µM); MIC (Pseudomonas aeruginosa; 18 h): > 200 mg/L; MIC (Listeria monocytogenes; 18 h): 5 mg/L (≈ 21.5 µM); MBC (Listeria monocytogenes; 24 h): 100 mg/L (≈ 431 µM); MIC (Staphylococcus aureus; 18 h): > 200 mg/L; MIC (Citrobacter; 18 h): > 200 mg/L; MIC (Klebsiella pneumoniae; 18 h): > 200 mg/L; MIC (Salmonella para B; Salmonella, 18 h): 5 mg/L (≈ 21.5 µM); MBC (Salmonella para B; Salmonella, 24 h, read-out: minimum bactericidal concentration (MBC)): 100 mg/L (≈ 431 µM); MIC (Proteus mirabilis; 18 h): > 200 mg/L; MIC (Streptococcus foecalis; Streptococcus, 18 h): > 200 mg/L; MIC ([1]; Enterobacter, 18 h): 25 mg/L (≈ 108 µM); MBC ([1]; Enterobacter, 24 h, read-out: minimum bactericidal concentration (MBC)): 100 mg/L (≈ 431 µM)
CCn1cc(C(=O)O)c(=O)c2c1ccc1cnn(C)c12 [I f, 1-ethyl-3-carboxy-4-oxo-5-methyl-pyrazolo[5,4-f]uinoline] |  | > 10 | > 10 |  | > 10 | > 10 | 
